The values that follow come from ChEMBL document CHEMBL1201862, “PubChem BioAssay data set” (2004).

Some test systems named below: HCT-116; OVCAR-8; SNB-19; TK-10; SF-295; OVCAR-3; EKVX; RPMI-8226; SK-MEL-28; SNB-75; 786-0; SF-268; SN12C; HOP-92; CAKI-1; SR; NCI-H522; HOP-62; A549; KM12.
Common to all, as to assay: inhibition of tumour cell growth, NCI panel, 48 h

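Cultured in 96-well plates, cells were exposed to test compound for 48 hours across five concentrations. GI50 = concentration required for 50% inhibition of growth.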 Active and inactive are the calls of the source. Rule as the data show it: active = GI50 up to about 1.1 µM and inactive = higher. Some results are limits rather than exact numbers.

In the case of `N=C1/C(=C/c2ccc(F)cc2)C(=O)N=C2SC=NN12`, the GI50 with HCT-116, in the experiment with OVCAR-8, in the experiment on SNB-19, with TK-10, in the experiment on SF-295 and in the experiment with OVCAR-3 was > 100 µM (inactive) throughout. Further, the GI50 in the experiment on EKVX was > 100 µM (inactive); in the experiment with RPMI-8226, > 100 µM (inactive); with SK-MEL-28, > 100 µM (inactive); in the experiment with SNB-75, 92.3 µM (inactive); in the experiment on 786-0, > 100 µM (inactive); in the experiment with SF-268, > 100 µM (inactive). The GI50 with SN12C is > 100 µM (inactive); with HOP-92, 69.2 µM (inactive); in the experiment with CAKI-1, > 100 µM (inactive); with SR, 92.3 µM (inactive); in the experiment with NCI-H522 it was > 100 µM (inactive); with HOP-62, > 100 µM (inactive). The GI50 in the experiment with A549 and in the experiment on KM12 was > 100 µM (inactive) in each case.
Take `COc1ccc2c(c1)C(=O)CC(C(N)=O)C2` (stereo not given): the GI50 in the experiment on HCT-116, in the experiment on OVCAR-8, in the experiment on SNB-19, with TK-10, with SF-295 and in the experiment on OVCAR-3 was > 100 µM (inactive) in each case. Besides, the GI50 in the experiment with EKVX is > 100 µM (inactive); with RPMI-8226, > 100 µM (inactive); in the experiment on SK-MEL-28 it was > 100 µM (inactive); in the experiment on SNB-75, 53.1 µM (inactive); with 786-0 it was > 100 µM (inactive); in the experiment with SF-268, > 100 µM (inactive). Moreover, the GI50 in the experiment with SN12C, with HOP-92, in the experiment with CAKI-1, in the experiment on SR, in the experiment with NCI-H522 and in the experiment on HOP-62 was > 100 µM (inactive) in each case. Besides, the GI50 in the experiment with A549 and with KM12 was > 100 µM (inactive) throughout.
For `Cc1c(N(C)C)ccc2c(=O)c3cccc(CC(=O)O)c3oc12`, the GI50 with HCT-116 was > 100 µM (inactive); in the experiment on OVCAR-8, > 100 µM (inactive); with SNB-19, > 43.4 µM (inactive); in the experiment on TK-10, > 100 µM (inactive); with SF-295 it was > 100 µM (inactive); in the experiment with OVCAR-3 it was > 100 µM (inactive). The GI50 in the experiment on EKVX, in the experiment on RPMI-8226, in the experiment with SK-MEL-28, in the experiment with SNB-75, with 786-0 and in the experiment with SF-268 was > 100 µM (inactive) each time. In addition, the GI50 in the experiment on SN12C is > 100 µM (inactive); in the experiment with HOP-92 it was > 64.9 µM (inactive); with CAKI-1, > 100 µM (inactive); with SR, > 100 µM (inactive); with NCI-H522, > 100 µM (inactive); in the experiment with HOP-62 it was > 100 µM (inactive). For the same molecule, the GI50 with A549 and with KM12 was > 100 µM (inactive) throughout.
On to `Brc1nc2c3ccccc3ncn2c1Br`, for which the GI50 was 37.3 µM (inactive) with HCT-116; 42.7 µM (inactive) in the experiment with OVCAR-8; 36.9 µM (inactive) with SNB-19; 56.4 µM (inactive) in the experiment on TK-10; 34.4 µM (inactive) with SF-295; 0.316 µM (active) in the experiment with OVCAR-3. Further, the GI50 with EKVX was 21.1 µM (inactive); with RPMI-8226 it was 23.4 µM (inactive); in the experiment on SK-MEL-28, 82 µM (inactive); with SNB-75, 20.1 µM (inactive); in the experiment with 786-0, 37.2 µM (inactive); with SF-268, 82.6 µM (inactive). In addition, the GI50 in the experiment on SN12C is 30.1 µM (inactive); with HOP-92 it was 27.9 µM (inactive); in the experiment with CAKI-1, 28.3 µM (inactive); with SR, 19.4 µM (inactive); in the experiment with NCI-H522 it was 18.7 µM (inactive); in the experiment on HOP-62, 44.6 µM (inactive). Moreover, the GI50 in the experiment on A549 was 38.8 µM (inactive); in the experiment on KM12 it was 32.1 µM (inactive).
